Test results: patent publication US20030225272A1, “Novel mmp-2/mmp-9 inhibitors” (priority 2003, published 2003)

Experiments:
[1] = molecular target: T1, purified recombinant human MMP-9 (Homo sapiens, UniProt P14780); assay: MMP-9 quenched fluorescence screening assay; type: biochemical; conditions: 96-well quenched fluorescence assay, fluorogenic peptide substrate, 30 minutes at 37 C
T1 construct: made in house
Description: (§1) A high-throughput, 96-well screen was used to measure MMP-9 activity and to detect potential inhibitors of MMP-9. The screen is a quenched fluorescence assay. The components of the assay include purified recombinant human MMP-9 (generated by. SB, 3 nM final concentration) and a fluorogenic peptide substrate (Peptides International, Louisville, Ky., 10 (M final concentration) incubated in the presence or absence of compound. Briefly, enzyme activity is measured after 30 minutes incubation at 37(C. and quantitated using a peptide substrate, (Dnp-Pro-Cha-Gly-Cys(Me)-His-Ala-Lys(NMa)-NH2 or (2,4-Dinitrophenyl-L-Prolyl-L-Cyclohexylalanyl-Glycyl(-Methyl-L-Cysteinyl-L-Histidyl-L-Alanyl-N(-Methylenthranoyl-L-Lysine Amide) containing a fluorophore, Nma, on one end of the peptide and a quencher, Dnp, on the other end. When the peptide is intact, the fluorophore is quenched. When the peptide is cleaved by MMP-9, the quencher is dissociated from the fluorophore and a fluorescent signal is emitted that can easily be detected using a fluorescent plate reader. The universal cleavage site within the peptide that is recognized by MMP-1, -2, -3, -9 and -13 is the Gly-Cys bond.
(§2) A 96-well quenched fluorescence assay was used to measure MMP-9 and MMP-2 activity and to detect potential inhibitors of MMP-9 and MMP-2. […] For these additional screens, an IC50 value was determined. […]

[2] = molecular target: T2, purified recombinant human MMP-2 (Homo sapiens, UniProt P08253); assay: MMP-2 quenched fluorescence screening assay; type: biochemical; conditions: 96-well quenched fluorescence assay, same fluorogenic peptide substrate
T2 construct: made in house
T2 sequence (P08253 110-660): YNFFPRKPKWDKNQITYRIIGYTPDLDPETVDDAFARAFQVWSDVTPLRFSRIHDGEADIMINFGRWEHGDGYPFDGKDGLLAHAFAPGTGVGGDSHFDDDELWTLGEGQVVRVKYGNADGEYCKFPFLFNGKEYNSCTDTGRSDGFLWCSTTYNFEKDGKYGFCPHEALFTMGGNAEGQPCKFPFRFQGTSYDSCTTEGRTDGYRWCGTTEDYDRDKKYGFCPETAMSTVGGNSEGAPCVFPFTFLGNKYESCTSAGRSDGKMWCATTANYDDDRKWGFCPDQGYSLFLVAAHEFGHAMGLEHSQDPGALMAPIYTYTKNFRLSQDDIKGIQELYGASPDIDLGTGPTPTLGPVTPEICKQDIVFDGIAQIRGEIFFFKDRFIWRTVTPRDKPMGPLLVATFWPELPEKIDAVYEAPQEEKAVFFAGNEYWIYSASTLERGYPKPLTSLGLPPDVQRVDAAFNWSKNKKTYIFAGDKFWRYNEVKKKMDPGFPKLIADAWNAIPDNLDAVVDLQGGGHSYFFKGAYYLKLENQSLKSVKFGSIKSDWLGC
Description: as §1, §2

T1 sequence (P14780 94-707): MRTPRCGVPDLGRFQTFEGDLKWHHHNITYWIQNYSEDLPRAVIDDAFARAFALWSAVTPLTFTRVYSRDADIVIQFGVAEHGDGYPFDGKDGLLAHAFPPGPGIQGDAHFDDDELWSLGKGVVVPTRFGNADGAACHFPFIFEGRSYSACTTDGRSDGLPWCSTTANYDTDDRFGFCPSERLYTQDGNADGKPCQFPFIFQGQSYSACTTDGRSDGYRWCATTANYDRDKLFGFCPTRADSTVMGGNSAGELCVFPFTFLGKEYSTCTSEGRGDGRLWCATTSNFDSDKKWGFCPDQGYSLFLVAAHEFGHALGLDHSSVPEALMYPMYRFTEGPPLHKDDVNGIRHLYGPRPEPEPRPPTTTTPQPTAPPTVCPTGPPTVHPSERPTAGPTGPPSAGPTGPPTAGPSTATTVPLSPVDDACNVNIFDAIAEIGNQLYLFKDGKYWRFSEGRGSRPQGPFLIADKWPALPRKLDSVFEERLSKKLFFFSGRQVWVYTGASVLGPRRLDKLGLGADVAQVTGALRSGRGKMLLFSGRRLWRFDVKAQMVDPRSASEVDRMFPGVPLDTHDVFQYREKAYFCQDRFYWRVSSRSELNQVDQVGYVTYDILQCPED

For `CCCCCCCCC[C@H](CC(=O)O)C(=O)N[C@@H](C(=O)NC)c1ccccc1` [Example 1, N-[2(R)-Nonylsuccinic acid]-L-phenylglycine-N-methylamide], which “MMP-9 inhibition (screening result in words)” value [1] is on record?
The value was “identified as a dual MMP-2/MMP-9 inhibitor”.

What about the “MMP-2 inhibition (screening result in words)” value [2] of the same compound?
The value was “identified as a dual MMP-2/MMP-9 inhibitor”.
